Reference: US20050009837A1, “Modulators of lipid metabolism and methods of use” (City of Hope, priority 2003, published 2005)

What was measured:
human PXR = human PXR (Homo sapiens, UniProt O75469); settings: cited from earlier work
NIH3T3-L1 adipocytes = test: Triglyceride content (Nile Red) of NIH3T3-L1 cells differentiated to adipocytes; type: cell-based; settings: 7 days
Description: (§1) NIH 3T3-L1 cells were maintained in growth media consisting of Dulbecco's modified Eagle's medium (DMEM) supplemented with 10% calf bovine serum (CBS), 50 U/ml penicillin G and 50 μg/ml streptomycin sulfate. To induce NIH 3T3-L1 differentiation into adipocytes, confluent cells were transferred from their growth media to DMEM containing 10% fetal bovine serum (FBS), 5 μg/ml insulin, 0.5 mM 3-isobutyl-1-methylxanthine (IBMX) and 1 μM dexamethasone for 7 days. During the differentiation period, cells also optionally received 200 nM T0901317, 7.5 μM Clotrimazole or both.
NIH3T3-L1 cells were allowed to differentiate for 7 days in the presence of a well-established differentiation cocktail containing dexamethazole (1 μm), IBMX (0.5 mM) and insulin (5 μg/ml) in the absence or presence of T0901317 (200 nM) or Clotrimazole (7.5 μm). The cells then were fixed and stained with Nile Red, which stains triglycerides (TG) green, and DAPI to visualize nuclei (in blue). TG content of the cell reflected increased or decreased lipogenesis.

NIH 3T3-L1 cells = test: Toxicity in NIH 3T3-L1 cells during differentiation; type: cell-based; settings: 200 nM T0901317, 7.5 μM Clotrimazole or both, 7 days
Description: as §1

[1] = molecular target: T1, ligand binding domain of LXRα-RXR heterodimers (Homo sapiens, UniProt Q13133); test: LXR ligand binding domain mediated activity, UASGx4 TK-Luc reporter in CV-1 cells; type: cell-based; settings: 20 μM
T1 construct: expressed in transfected cells; host or cells: CV-1 cells
T1 sequence (Q13133 209-447 limits assumed): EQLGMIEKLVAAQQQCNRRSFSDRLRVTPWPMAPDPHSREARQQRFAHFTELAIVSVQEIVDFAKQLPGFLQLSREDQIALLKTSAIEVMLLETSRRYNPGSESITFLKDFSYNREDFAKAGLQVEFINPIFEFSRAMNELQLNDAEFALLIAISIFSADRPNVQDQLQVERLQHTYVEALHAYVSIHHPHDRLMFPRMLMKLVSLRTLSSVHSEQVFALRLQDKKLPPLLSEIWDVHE
T1 sequence (P19793 227-458 partner limits assumed): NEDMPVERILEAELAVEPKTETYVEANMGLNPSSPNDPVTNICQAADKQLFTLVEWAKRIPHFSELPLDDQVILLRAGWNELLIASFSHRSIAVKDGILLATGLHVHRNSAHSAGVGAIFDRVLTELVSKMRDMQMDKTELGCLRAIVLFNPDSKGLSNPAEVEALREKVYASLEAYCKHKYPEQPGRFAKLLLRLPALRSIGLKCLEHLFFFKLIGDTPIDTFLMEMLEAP
Description: CV-1 cells were grown in DMEM supplemented with 10% resin-charcoal stripped fetal bovine serum, 50 U/ml penicillin G and 50 μg/ml streptomycin sulfate at 37° C. in 5% CO2. Cells were plated to 50-80% confluence one day prior to transfection using phenol red-free DMEM-FBS. The cells were transfected by lipofection using N-[1-(2,3-dioleoyloxy)propyl]-N,N,N-ammonium methyl sulfate according to manufacturer's instructions (Boehringer Mannheim).
Genes encoding the following full-length proteins, which are suitable for use in the studies described herein, were cloned into pCMX: human RXRα (Gene Bank accession X52773) and human LXRα (GenBank accession U22662). The cells were transfected with CMX-βgal and luciferase constructs. The CMX-βGal construct contained the ligand binding domain of human RXR (hRXRα) and the ligand binding domain of human LXRα (hLXRα) as indicated in FIG. 1. The luciferase reporter construct (LXREx3 TK-Luc) contained the herpes virus thymidine kinase promoter (−105/+51) linked to three copies of the response element LXRE. After transfection, the cells were treated with 20 μM of a synthetic azole test compound or vehicle alone for 40 hours in phenol red-free DMEM-FBS. After exposure to the candidate antagonist compounds, cells were harvested and assayed for luciferase and β-galactosidase activity.
The reporter gene was UASGx4 TK-Luc.

[2] = molecular target: T2, LXRα-RXR heterodimers / SRC-1 (Homo sapiens, UniProt Q13133); test: In vitro coactivator recruitment/displacement assay (gel), LXRα, RXR, GST-SRC-1, 32P-LXRE probe; type: biochemical; settings: 10 μM
T2 construct: made in house; host or cells: receptors translated in vitro
Description: This was tested more directly using an in vitro coactivator recruitment/coactivator displacement assay. This assay has the advantage that it is performed with receptors bound to DNA and that it measures a direct interaction between receptor and coactivator with no interference by other proteins that may indirectly stabilize the complex. The assay was performed by mixing in vitro translated LXRα or LXRβ, RXR, 5 μg of purified GST-SRC-1 and a ^32P-labeled LXRE probe with or without 10 μM Clotrimazole according to previously described methods. Wang et al., Mol. Cell 3:543-553, 1999. The complexes then were separated through 5.5% polyacrylamide gels. The probe used represents a DR-4 element derived from the human SREBP-1c promoter (nt 337-361, accession no. AB046200).

LXRβ = molecular target: T3, LXRβ (Homo sapiens, UniProt P55055); test: Transient transfection assay Gal-LXRβ + RXR LBD, UASGx4 TK Luc reporter, CV-1 cells; type: cell-based
T3 construct: expressed in transfected cells; host or cells: CV-1 cells
T3 sequence (P55055 222-460 limits assumed): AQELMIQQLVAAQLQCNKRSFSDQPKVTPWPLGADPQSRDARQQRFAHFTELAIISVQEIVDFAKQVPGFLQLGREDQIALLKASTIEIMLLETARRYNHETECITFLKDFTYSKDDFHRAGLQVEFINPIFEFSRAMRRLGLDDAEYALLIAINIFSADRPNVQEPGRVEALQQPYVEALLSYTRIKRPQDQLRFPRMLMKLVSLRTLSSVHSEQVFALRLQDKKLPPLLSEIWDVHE
T3 sequence (P19793 227-458 partner limits assumed): T1 sequence (P19793 227-458 partner limits assumed)
Description: Synthetic compounds were screened in an effort to find more specific LXR inhibitors. CV-1 cells were maintained and transfected using known methods. Forman et al., Cell 81: 687-693, 1995. CV-1 cells were transiently transfected with Gal-hLXRα, the RXR LBD, the UASGx4 TK Luc reporter and CMX-β-gal as an internal control, either in standard or in lipid-stripped serum. After transfection, cells were treated for approximately 40 hours with phenol red-free DMEM-FBS containing the indicated compounds at the following concentrations: T0901317 (100 nM), Clotrimazole (10 μM), S883417(10 μM) and S100250 (10 μM), unless otherwise specified. After exposure to ligand, the cells were harvested and assayed for luciferase and β-galactosidase activity. The luciferase activity was normalized to the internal β-galactosidase control (reporter activity).
The ability of these compounds to repress LXRα and LXRβ was compared by transfecting CV-1 cells with either the RXR LBD alone or the RXR LBD together with either Gal-LXRα or Gal-LXRβ.
Transfections were performed as described above, with increasing concentrations of Clotrimazole.

T2 sequence (Q13133 whole entry): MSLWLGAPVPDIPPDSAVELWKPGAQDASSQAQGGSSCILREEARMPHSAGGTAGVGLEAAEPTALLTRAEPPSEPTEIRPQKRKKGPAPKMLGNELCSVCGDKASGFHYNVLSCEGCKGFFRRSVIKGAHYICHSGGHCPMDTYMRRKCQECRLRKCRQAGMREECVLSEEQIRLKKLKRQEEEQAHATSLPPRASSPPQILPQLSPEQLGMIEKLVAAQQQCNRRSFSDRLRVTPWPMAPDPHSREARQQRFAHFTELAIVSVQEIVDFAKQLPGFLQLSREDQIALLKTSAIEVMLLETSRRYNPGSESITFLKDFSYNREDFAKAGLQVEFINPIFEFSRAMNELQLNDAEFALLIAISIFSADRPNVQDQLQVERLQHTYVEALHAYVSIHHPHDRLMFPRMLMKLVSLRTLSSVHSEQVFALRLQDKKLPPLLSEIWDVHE
T2 sequence (P19793 whole entry partner): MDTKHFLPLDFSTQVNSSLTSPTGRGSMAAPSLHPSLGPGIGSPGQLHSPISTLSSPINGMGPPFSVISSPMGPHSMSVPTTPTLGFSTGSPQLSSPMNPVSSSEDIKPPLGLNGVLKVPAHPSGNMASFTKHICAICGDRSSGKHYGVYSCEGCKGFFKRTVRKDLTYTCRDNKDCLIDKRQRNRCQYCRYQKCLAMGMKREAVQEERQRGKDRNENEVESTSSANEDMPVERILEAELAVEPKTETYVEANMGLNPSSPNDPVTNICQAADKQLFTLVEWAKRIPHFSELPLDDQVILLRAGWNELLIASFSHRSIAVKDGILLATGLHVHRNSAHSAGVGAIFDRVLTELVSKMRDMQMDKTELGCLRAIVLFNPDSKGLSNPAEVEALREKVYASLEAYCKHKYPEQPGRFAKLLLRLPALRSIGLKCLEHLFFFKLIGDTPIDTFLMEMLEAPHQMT
Chain of human PXR (O75469 whole entry): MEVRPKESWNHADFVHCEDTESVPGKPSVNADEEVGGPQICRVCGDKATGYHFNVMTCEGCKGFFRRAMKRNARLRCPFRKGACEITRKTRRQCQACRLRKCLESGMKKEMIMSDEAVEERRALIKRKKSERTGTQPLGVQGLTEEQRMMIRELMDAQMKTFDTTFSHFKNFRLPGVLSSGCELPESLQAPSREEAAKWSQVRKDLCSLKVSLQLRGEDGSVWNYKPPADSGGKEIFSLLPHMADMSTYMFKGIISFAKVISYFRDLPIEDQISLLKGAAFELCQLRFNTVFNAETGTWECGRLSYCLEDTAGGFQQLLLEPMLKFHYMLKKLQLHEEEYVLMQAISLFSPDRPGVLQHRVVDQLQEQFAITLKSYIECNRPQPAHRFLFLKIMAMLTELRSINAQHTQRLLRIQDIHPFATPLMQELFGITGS

inhibition of constitutive activation by the LXRα-RXR ligand binding domain (UASGx4 TK-Luc) [1]: inhibit constitutive activation | effect on LXRα-RXR heterodimers (bound to LXRE probe) ([2]; lane 3): no effect | interaction of LXRα-RXR with SRC-1 ([2]; lane 4): prevented the interaction with SRC-1 | repression of LXRβ activity (LXRβ; 10 μM, approximately 40 hours, lipid-stripped serum): powerful antagonist | EC50 (LXRβ; dose-response, increasing concentrations, read-out: EC50 for repression of LXRβ constitutive activity): ~10 µM
SMILES: Clc1ccccc1C(c1ccccc1)(c1ccccc1)n1ccnc1 [Clotrimazole]
activity on human PXR (human PXR): agonist | TG content compared to treatment with T0901317 alone (NIH3T3-L1 adipocytes; Clotrimazole 7.5 μm plus T0901317 200 nM): reduction in TG content | TG content compared to differentiation cocktail only (NIH3T3-L1 adipocytes; T0901317 200 nM or Clotrimazole 7.5 μm): decreased | toxicity (NIH 3T3-L1 cells): No toxicity
